Consider one compound from patent US8048440B2, “Thermoplastic fluoropolymer-coated medical devices” (Gore Enterprise Holdings, Inc., priority 2002, dated 2011).

This data set is described as follows: release of chlorhexidine dihydrochloride from the pocketed TFE/PMVE film composite in PBS, with needle puncture. Format: physicochemical. The conditions noted are these: 1 cm by 1 cm composite in PBS at 37° C., punctured with 16-gauge needle. From the text: A polypropylene template with 0.7 mm diameter holes arranged in a rectangle pattern was made to facilitate manufacturing of the device. The holes were evenly spaced approximately 2 mm apart, from edge to edge. This template was placed on top of one of the TFE/PMVE extruded sheets, then dusted with chlorhexidine dihydrochloride. The template was removed, leaving a dot-matrix pattern of the drug on the surface of the extruded film. A second sheet of extruded polymer was gently placed on top of the first sheet. The composite of polymer sheets and drug was wrapped in aluminum foil, placed between two metal plates, heated in an oven set at 115° C. for 15 minutes, removed from the oven, immediately pressed between the two hot metal plates for 15 minutes, and then removed from the metal plates and aluminum foil. This process created encapsulated drug pockets between the polymer films. An approximately 1 cm by 1 cm square of finished material was placed into phosphate buffered saline (PBS) at 37° C., periodically sampled for antimicrobial content, and punctured with a 16-gauge needle. The release of the chlorhexidine dihydrochloride as a function of puncturing the composite and time in solution is shown in FIG. 7C. […] Thus, an additional dose of the drug can be delivered on demand as a consequence of puncturing drug pockets.

Structures are written as SMILES. Where a name gives a salt, the structure may show the parent alone.

Take `[H]/N=C(\N/C(=N/[H])NCCCCCCNC(=N)NC(=N)Nc1ccc(Cl)cc1)Nc1ccc(Cl)cc1` [chlorhexidine dihydrochloride]: the “release of chlorhexidine dihydrochloride as a function of puncturing and time in solution” value is “continuously released at a minimal level until the composite was punctured with the needle”.
